One data set addresses T1, human GLP-1 receptor (Homo sapiens, UniProt P43220).
T1 construct: expressed in transfected cells; host or cells: BHK cells (parent BHKTS13), clone FCW467-12A/KZ10-1, with CRE luciferase
In words: GLP-1 receptor binding, 125I-GLP-1 displacement SPA on isolated membranes. The note with it: displacement of 125I-GLP-1 from membranes; read-out: IC50 GLP-1R. The essentials: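 SPA displacement of 125I-GLP-1(7-36)NH2 from membranes of BHK cells expressing human GLP-1 receptor, with WGA beads, in 50 mM HEPES, 5 mM EGTA, 5 mM MgCl2, 0.005% Tween 20, pH 7.4. Incubated 2 h at 30°C; IC50 by non-linear regression, run at ≤0.001% or 2.0% final serum albumin.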

The nature of data set [1]: Chemical stability assessment by RP-UPLC. The settings on record: 333 μM, 8 mM phosphate buffer pH 7.3, 37° C. vs 5° C. The format is physicochemical. Put shortly: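 Purity loss = (purity after 14 days at 5° C. minus that at 37° C.) relative to the 5° C. value, purity being main-peak area % by RP-UPLC with UV at 215 nm. Samples were 333 μM in 8 mM phosphate, pH 7.3; gradient adjusted for outlying retention times.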

Numbered stars: 1 amine (or outer) side, 2 acyl side, 3 side chain; on linkers, the order of the positions; unused ones are H or OH. Bridge positions count the residues as written; N and C are the ends. Square brackets hold non-standard residues; d marks the D form. Side chains are listed from the residue outwards. Peptide text beside a SMILES is read from it. I, II: the chains in the order shown. * marks the point of attachment. C18 diacid = O=C(O)CCCCCCCCCCCCCCCCC(=O)*; γGlu = O=C(O)[C@H](CCC(=O)[*:2])N[*:1]; Ac4c = NC1(C(=O)O)CCC1; AEEA = NCCOCCOCC(=O)O; Aib = CC(C)(N)C(=O)O

From patent US9474790B2, “Stable, protracted GLP-1/glucagon receptor co-agonists for medical use” (Novo Nordisk A/S, priority 2013, dated 2016) come the findings set out here.

T1 sequence (P43220 24-463): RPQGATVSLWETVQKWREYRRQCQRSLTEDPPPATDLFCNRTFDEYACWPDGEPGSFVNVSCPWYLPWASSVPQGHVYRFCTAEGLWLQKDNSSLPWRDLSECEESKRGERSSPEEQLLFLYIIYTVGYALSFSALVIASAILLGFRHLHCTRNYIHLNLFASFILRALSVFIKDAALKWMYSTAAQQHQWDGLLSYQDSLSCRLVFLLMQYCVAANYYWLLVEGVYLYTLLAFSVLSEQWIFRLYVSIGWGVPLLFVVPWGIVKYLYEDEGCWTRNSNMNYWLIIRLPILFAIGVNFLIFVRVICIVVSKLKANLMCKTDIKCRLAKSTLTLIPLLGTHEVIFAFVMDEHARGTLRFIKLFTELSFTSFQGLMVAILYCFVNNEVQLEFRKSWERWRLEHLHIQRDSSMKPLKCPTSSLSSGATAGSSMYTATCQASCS

With `CC(C)C[C@H](NC(=O)[C@H](Cc1ccc(O)cc1)NC(=O)[C@H](CCCCN)NC(=O)[C@H](CO)NC(=O)[C@H](CC(C)C)NC(=O)[C@H](CC(=O)O)NC(=O)[C@H](CO)NC(=O)[C@@H](NC(=O)[C@H](Cc1ccccc1)NC(=O)[C@@H](NC(=O)CNC(=O)[C@H](CCC(N)=O)NC(=O)C1(NC(=O)[C@@H](N)Cc2c[nH]cn2)CCC1)[C@@H](C)O)[C@@H](C)O)C(=O)N[C@@H](CCC(=O)O)C(=O)N[C@@H](CCC(=O)O)C(=O)N[C@@H](CCCNC(=N)N)C(=O)N[C@@H](CCCNC(=N)N)C(=O)N[C@@H](C)C(=O)N[C@@H](CCCNC(=N)N)C(=O)N[C@@H](CC(=O)O)C(=O)N[C@@H](Cc1ccccc1)C(=O)N[C@H](C(=O)N[C@@H](CCC(N)=O)C(=O)N[C@@H](Cc1c[nH]c2ccccc12)C(=O)N[C@@H](CC(C)C)C(=O)N[C@@H](CC(C)C)C(=O)N[C@@H](CCCCNC(=O)CNC(=O)[C@H](CO)NC(=O)[C@H](CCC(=O)O)NC(=O)CNC(=O)[C@H](CO)NC(=O)CC[C@H](NC(=O)CC[C@H](NC(=O)CCCCCCCCCCCCCCCCC(=O)O)C(=O)O)C(=O)O)C(=O)N[C@H](C(N)=O)[C@@H](C)O)C(C)C` [Example 16, N^ε28-[2-[[(2S)-2-[[(2S)-4-carboxy-2-[[2-[[(2S)-2-[[(4S)-4-carboxy-4-[[(4S)-4-carboxy-4-(17-carboxyheptadecanoylamino)butanoyl]amino]butanoyl]amino]-3-hydroxypropanoyl]amino]acetyl]amino]butanoyl]amino]-3-hydroxypropanoyl]amino]acetyl]-[Acb2,Leu10,Glu15,Glu16,Arg20,Leu27,Lys28]-Glucagon amide] (I: H-H[Ac4c]QGTFTSDLSKYLEERRARDFVQWLLKT-NH2 / II: {C18 diacid-γGlu-γGlu}-SGESG; amide I:28-II:C; N-terminus assumed), the IC50 on human GLP-1 receptor was 0.2 nM. Moreover, in data set [1], the “Purity loss; 14 days at 37° C.” value was 3%.
The matching figures for `CC(C)C[C@H](NC(=O)[C@H](Cc1ccc(O)cc1)NC(=O)[C@H](CCCCN)NC(=O)[C@H](CO)NC(=O)[C@H](CC(C)C)NC(=O)[C@H](CC(=O)O)NC(=O)[C@H](CO)NC(=O)[C@@H](NC(=O)[C@H](Cc1ccccc1)NC(=O)[C@@H](NC(=O)CNC(=O)[C@H](CCC(N)=O)NC(=O)C(C)(C)NC(=O)[C@@H](N)Cc1c[nH]cn1)[C@@H](C)O)[C@@H](C)O)C(=O)N[C@@H](CCC(=O)O)C(=O)N[C@@H](CO)C(=O)N[C@@H](CCCNC(=N)N)C(=O)N[C@@H](CCCNC(=N)N)C(=O)N[C@@H](C)C(=O)N[C@@H](CCCNC(=N)N)C(=O)N[C@@H](CCC(=O)O)C(=O)N[C@@H](Cc1ccccc1)C(=O)N[C@H](C(=O)N[C@@H](CCC(N)=O)C(=O)N[C@@H](Cc1c[nH]c2ccccc12)C(=O)N[C@@H](CC(C)C)C(=O)N[C@@H](CC(C)C)C(=O)N[C@@H](CCCCNC(=O)CC[C@H](NC(=O)CC[C@H](NC(=O)COCCOCCNC(=O)COCCOCCNC(=O)CC[C@H](NC(=O)CCCCCCCCCCCCCCCCC(=O)O)C(=O)O)C(=O)O)C(=O)O)C(=O)N[C@H](C(N)=O)[C@@H](C)O)C(C)C` [Example 23, N^ε28-[(4S)-4-carboxy-4-[[(4S)-4-carboxy-4-[[2-[2-[2-[[2-[2-[2-[[(4S)-4-carboxy-4-(17-carboxyheptadecanoylamino)butanoyl]amino]ethoxy]ethoxy]acetyl]amino]ethoxy]ethoxy]acetyl]amino]butanoyl]amino]butanoyl]-[Aib2,Leu10,Glu15,Arg20,Glu21,Leu27,Lys28]-Glucagon amide] (H-H[Aib]QGTFTSDLSKYLESRRAREFVQWLLK([γGlu-γGlu-AEEA-AEEA-γGlu-C18 diacid])T-NH2; N-terminus assumed): 0.3 nM and 2%.
The matching figures for `CC(C)C[C@H](NC(=O)[C@H](Cc1ccc(O)cc1)NC(=O)[C@H](CCCCN)NC(=O)[C@H](CO)NC(=O)[C@H](CC(C)C)NC(=O)[C@H](CC(=O)O)NC(=O)[C@H](CO)NC(=O)[C@@H](NC(=O)[C@H](Cc1ccccc1)NC(=O)[C@@H](NC(=O)CNC(=O)[C@H](CCC(N)=O)NC(=O)C(C)(C)NC(=O)[C@@H](N)Cc1c[nH]cn1)[C@@H](C)O)[C@@H](C)O)C(=O)N[C@@H](CCC(=O)O)C(=O)N[C@@H](CO)C(=O)N[C@@H](CCCCN)C(=O)N[C@@H](CCCNC(=N)N)C(=O)N[C@@H](C)C(=O)N[C@@H](CCCNC(=N)N)C(=O)N[C@@H](CCC(=O)O)C(=O)N[C@@H](Cc1ccccc1)C(=O)N[C@H](C(=O)N[C@@H](CCC(N)=O)C(=O)N[C@@H](Cc1c[nH]c2ccccc12)C(=O)N[C@@H](CC(C)C)C(=O)N[C@@H](CC(C)C)C(=O)N[C@@H](CCCCNC(=O)CNC(=O)[C@H](CO)NC(=O)[C@H](CCC(=O)O)NC(=O)CNC(=O)[C@H](CO)NC(=O)CC[C@H](NC(=O)CC[C@H](NC(=O)CCCCCCCCCCCCCCCCC(=O)O)C(=O)O)C(=O)O)C(=O)N[C@H](C(N)=O)[C@@H](C)O)C(C)C` [Example 25, N^ε28-[2-[[(2S)-2-[[(2S)-4-carboxy-2-[[2-[[(2S)-2-[[(4S)-4-carboxy-4-[[(4S)-4-carboxy-4-(17-carboxyheptadecanoylamino)butanoyl]amino]butanoyl]amino]-3-hydroxypropanoyl]amino]acetyl]amino]butanoyl]amino]-3-hydroxypropanoyl]amino]acetyl]-[Aib2,Leu10,Glu15,Lys17,Arg20,Glu21,Leu27,Lys28]-Glucagon amide] (I: H-H[Aib]QGTFTSDLSKYLESKRAREFVQWLLKT-NH2 / II: {C18 diacid-γGlu-γGlu}-SGESG; amide I:28-II:C; N-terminus assumed): 0.2 nM and 1%.
With `CC(C)C[C@H](NC(=O)[C@H](CC(=O)O)NC(=O)[C@H](CC(C)C)NC(=O)[C@H](Cc1ccc(O)cc1)NC(=O)[C@H](CCCCN)NC(=O)[C@H](CO)NC(=O)[C@H](CC(C)C)NC(=O)[C@H](CC(=O)O)NC(=O)[C@H](CO)NC(=O)[C@@H](NC(=O)[C@H](Cc1ccccc1)NC(=O)[C@@H](NC(=O)CNC(=O)[C@H](CCC(N)=O)NC(=O)C(C)(C)NC(=O)[C@@H](N)Cc1c[nH]cn1)[C@@H](C)O)[C@@H](C)O)C(=O)N[C@@H](CCCCN)C(=O)N[C@@H](CCCNC(=N)N)C(=O)N[C@@H](C)C(=O)N[C@@H](CCCNC(=N)N)C(=O)N[C@@H](CCC(=O)O)C(=O)N[C@@H](Cc1ccccc1)C(=O)N[C@H](C(=O)N[C@@H](CCC(N)=O)C(=O)N[C@@H](Cc1c[nH]c2ccccc12)C(=O)N[C@@H](CC(C)C)C(=O)N[C@@H](CC(C)C)C(=O)N[C@@H](CCCCNC(=O)CC[C@H](NC(=O)CC[C@H](NC(=O)COCCOCCNC(=O)COCCOCCNC(=O)CC[C@H](NC(=O)CCCCCCCCCCCCCCCCC(=O)O)C(=O)O)C(=O)O)C(=O)O)C(=O)N[C@H](C(N)=O)[C@@H](C)O)C(C)C` [Example 26, N^ε28-[(4S)-4-carboxy-4-[[(4S)-4-carboxy-4-[[2-[2-[2-[[2-[2-[2-[[(4S)-4-carboxy-4-(17-carboxyheptadecanoylamino)butanoyl]amino]ethoxy]ethoxy]-acetyl]amino]ethoxy]ethoxy]acetyl]amino]butanoyl]amino]butanoyl]-[Aib2,Leu10,Leu16,Lys17,Arg20,Glu21, Leu27,Lys28]-Glucagon amide] (H-H[Aib]QGTFTSDLSKYLDLKRAREFVQWLLK([γGlu-γGlu-AEEA-AEEA-γGlu-C18 diacid])T-NH2), the IC50 on human GLP-1 receptor worked out at 0.5 nM. Also, the “Purity loss; 14 days at 37° C.” value in data set [1] was 2%.
The matching figures for `CC(C)C[C@H](NC(=O)[C@H](Cc1ccc(O)cc1)NC(=O)[C@H](CCCCN)NC(=O)[C@H](CO)NC(=O)[C@H](CC(C)C)NC(=O)[C@H](CC(=O)O)NC(=O)[C@H](CO)NC(=O)[C@@H](NC(=O)[C@H](Cc1ccccc1)NC(=O)[C@@H](NC(=O)CNC(=O)[C@H](Cc1c[nH]cn1)NC(=O)C(C)(C)NC(=O)[C@@H](N)Cc1c[nH]cn1)[C@@H](C)O)[C@@H](C)O)C(=O)N[C@@H](CCC(=O)O)C(=O)N[C@@H](CO)C(=O)N[C@@H](CCCCN)C(=O)N[C@@H](CCCNC(=N)N)C(=O)N[C@@H](C)C(=O)N[C@@H](CCCNC(=N)N)C(=O)N[C@@H](CCC(=O)O)C(=O)N[C@@H](Cc1ccccc1)C(=O)N[C@H](C(=O)N[C@@H](CCC(N)=O)C(=O)N[C@@H](Cc1c[nH]c2ccccc12)C(=O)N[C@@H](CC(C)C)C(=O)N[C@@H](CC(C)C)C(=O)N[C@@H](CCCCNC(=O)CC[C@H](NC(=O)CC[C@H](NC(=O)COCCOCCNC(=O)COCCOCCNC(=O)CC[C@H](NC(=O)CCCCCCCCCCCCCCCCC(=O)O)C(=O)O)C(=O)O)C(=O)O)C(=O)N[C@H](C(N)=O)[C@@H](C)O)C(C)C` [Example 27, N^ε28-[(4S)-4-carboxy-4-[[(4S)-4-carboxy-4-[[2-[2-[2-[[2-[2-[2-[[(4S)-4-carboxy-4-(17-carboxyheptadecanoylamino)butanoyl]amino]ethoxy]ethoxy]acetyl]amino]ethoxy]ethoxy]acetyl]amino]butanoyl]amino]butanoyl]-[Aib2,His3,Leu10,Glu15,Lys17,Arg20,Glu21,Leu27, Lys28]-Glucagon amide] (H-H[Aib]HGTFTSDLSKYLESKRAREFVQWLLK([γGlu-γGlu-AEEA-AEEA-γGlu-C18 diacid])T-NH2; N-terminus assumed): 0.9 nM and 5%.
